In US11986532B2 (Arvinas Operations, Inc., priority 2021, dated 2024):
Like-named read-outs stand apart in the source and are kept apart here.

Target: T1, BCL6 (Homo sapiens, UniProt P41182)
T1 construct: endogenous in cells; host or cells: T47D breast cancer epithelial cells
Test: Immunofluorescence protocol for high content imaging of BCL6 (degradation) in T47D cells, 3 days compound treatment
Assay type: cell-based
Settings: for Dmax: read-out: Mean Dmax (%)** category; for DC50: read-out: Mean DC50 (nM)* category
Method in brief: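 Read-out: high-content imaging of anti-BCL6 immunofluorescence (Alexa-488 secondary) with CellMask and Hoechst counterstains, 10×, 4 fields/well. Cells had 3 days of compound exposure at 37° C, 5% CO2, 11-point 3-fold series from a final top of 0.1 or 1 μM.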

[1] = T47D cells, 3 days compound treatment

| Compound | DC50 [1] | Dmax [1] | Dmax (T47D) | DC50 |
| --- | --- | --- | --- | --- |
| CNC(=O)COc1cc2cc(Nc3nc(N4CCC(O[C@H]5C[C@H](N6CCC7(CCN(c8ccc9c(c8)CN(C8CCC(=O)NC8=O)C9=O)C7)CC6)C5)CC4)ncc3Cl)ccc2n(C(C)C)c1=O (some centres unmarked) [Compound 361, 2-({6-[(5-chloro-2-{4-[(1r,3r)-3-{2-[2-(2,6-dioxopiperidin-3-yl)-1-oxo-2,3-dihydro-1H-isoindol-5-yl]-2,8-diazaspiro [4.5]decan-8-yl}cyclobutoxy]piperidin-1-yl}pyrimidin-4-yl)amino]-2-oxo-1-(propan-2-yl)-1,2-dihydroquinolin-3-yl}oxy)-N-methylacetamide] | – | – | 50 to 70% | < 10 nM |
| CNC(=O)COc1cc2cc(Nc3nc(N4CCC(O[C@H]5C[C@H](N6CCC(c7ccc8c(c7F)CN(C7CCC(=O)NC7=O)C8=O)CC6)C5)CC4)ncc3Cl)ccc2n(C2CCC2)c1=O (some centres unmarked) [Compound 190, 2-({6-[(5-chloro-2-{4-[(1r,3r)-3-{4-[2-(2,6-dioxopiperidin-3-yl)-4-fluoro-1-oxo-2,3-dihydro-1H-isoindol-5-yl]piperidin-1-yl}cyclobutoxy]piperidin-1-yl}pyrimidin-4-yl)amino]-1-cyclobutyl-2-oxo-1,2-dihydroquinolin-3-yl}oxy)-N-methylacetamide] | < 10 nM | ≥ 70% | – | – |
| CNC(=O)COc1cc2cc(Nc3nc(N4CCC(O[C@H]5C[C@H](N6CCC7(CC6)CN(c6ccc8c(c6F)CN(C6CCC(=O)NC6=O)C8=O)C7)C5)CC4)ncc3Cl)ccc2n(C(C)C)c1=O (some centres unmarked) [Compound 410, 2-({6-[(5-chloro-2-{4-[(1r,3r)-3-{2-[2-(2,6-dioxopiperidin-3-yl)-4-fluoro-1-oxo-2,3-dihydro-1H-isoindol-5-yl]-2,7-diazaspiro[3.5]nonan-7-yl}cyclobutoxy]piperidin-1-yl}pyrimidin-4-yl)amino]-2-oxo-1-(propan-2-yl)-1,2-dihydroquinolin-3-yl}oxy)-N-methylacetamide] | – | – | ≥ 70% | < 10 nM |
| CNC(=O)COc1cc2cc(Nc3nc(N4CCN(CC5CC6(CCN(c7ccc8c(c7F)CN(C7CCC(=O)NC7=O)C8=O)CC6)C5)CC4)ncc3Cl)ccc2n(C(C)C)c1=O (centres unmarked) [Compound 319, 2-{[6-({5-chloro-2-[4-({7-[2-(2,6-dioxopiperidin-3-yl)-4-fluoro-1-oxo-2,3-dihydro-1H-isoindol-5-yl]-7-azaspiro[3.5]nonan-2-yl}methyl)piperazin-1-yl]pyrimidin-4-yl}amino)-2-oxo-1-(propan-2-yl)-1,2-dihydroquinolin-3-yl]oxy}-N-methylacetamide] | – | – | 50 to 70% | < 10 nM |
| CNC(=O)COc1cc2cc(Nc3nc(N4CCC(O[C@H]5C[C@H](N6CCC(c7cnc8c(c7)CN(C7CCC(=O)NC7=O)C8=O)CC6)C5)CC4)ncc3Cl)ccc2n(C(C)C)c1=O (some centres unmarked) [Compound 216, 2-({6-[(5-chloro-2-{4-[(1r,3r)-3-{4-[6-(2,6-dioxopiperidin-3-yl)-7-oxo-5H,6H,7H-pyrrolo[3,4-b]pyridin-3-yl]piperidin-1-yl}cyclobutoxy]piperidin-1-yl}pyrimidin-4-yl)amino]-2-oxo-1-(propan-2-yl)-1,2-dihydroquinolin-3-yl}oxy)-N-methylacetamide] | – | – | 50 to 70% | < 10 nM |
| CNC(=O)COc1cc2cc(Nc3nc(N4CCC(OC5CCC6(CC5)CN(c5cc(OC)cc7c5CN(C5CCC(=O)NC5=O)C7=O)C6)CC4)ncc3Cl)ccc2n(C(C)C)c1=O (centres unmarked) [Compound 301, 2-{[6-({5-chloro-2-[4-({2-[2-(2,6-dioxopiperidin-3-yl)-6-methoxy-1-oxo-2,3-dihydro-1H-isoindol-4-yl]-2-azaspiro[3.5]nonan-7-yl}oxy)piperidin-1-yl]pyrimidin-4-yl}amino)-2-oxo-1-(propan-2-yl)-1,2-dihydroquinolin-3-yl]oxy}-N-methylacetamide] | – | – | 50 to 70% | < 10 nM |
| CNC(=O)COc1cc2cc(Nc3nc(N4CCC5(CCN(CC6CCN(c7cccc8c7CN(C7CCC(=O)NC7=O)C8=O)CC6)C5)C4)ncc3Cl)ccc2n(C(C)C)c1=O (centres unmarked) [Compound 12, 2-{[6-({5-chloro-2-[7-({1-[2-(2,6-dioxopiperidin-3-yl)-1-oxo-2,3-dihydro-1H-isoindol-4-yl]piperidin-4-yl}methyl)-2,7-diazaspiro[4.4]nonan-2-yl]pyrimidin-4-yl}amino)-2-oxo-1-(propan-2-yl)-1,2-dihydroquinolin-3-yl]oxy}-N-methylacetamide] | < 10 nM | 50 to 70% | – | – |
| CNC(=O)COc1cc2cc(Nc3nc(N4CCC(O[C@H]5C[C@H](N6CCN(c7ccc8c(c7Cl)CN(C7CCC(=O)NC7=O)C8=O)[C@@H](C)C6)C5)CC4)ncc3Cl)ccc2n(C(C)C)c1=O (stereo partly drawn) [Compound 206, 2-({6-[(5-chloro-2-{4-[(1r,3r)-3-[(3S)-4-[4-chloro-2-(2,6-dioxopiperidin-3-yl)-1-oxo-2,3-dihydro-1H-isoindol-5-yl]-3-methylpiperazin-1-yl]cyclobutoxy]piperidin-1-yl}pyrimidin-4-yl)amino]-2-oxo-1-(propan-2-yl)-1,2-dihydroquinolin-3-yl}oxy)-N-methylacetamide] | < 10 nM | ≥ 70% | – | – |
| CNC(=O)COc1cc2cc(Nc3nc(N4CCC(OC5CCC6(CC5)CN(c5ccc7c(c5)CN(C5CCC(=O)NC5=O)C7=O)C6)CC4)ncc3Cl)ccc2n(C(C)C)c1=O (centres unmarked) [Compound 49, 2-{[6-({5-chloro-2-[4-({2-[2-(2,6-dioxopiperidin-3-yl)-1-oxo-2,3-dihydro-1H-isoindol-5-yl]-2-azaspiro[3.5]nonan-7-yl}oxy)piperidin-1-yl]pyrimidin-4-yl}amino)-2-oxo-1-(propan-2-yl)-1,2-dihydroquinolin-3-yl]oxy}-N-methylacetamide] | < 10 nM | 50 to 70% | – | – |
| CNC(=O)COc1cc2c(F)c(Nc3nc(N4CCC(CN5CCC6(CN(c7ccc8c(c7F)CN(C7CCC(=O)NC7=O)C8=O)C6)C(F)(F)C5)CC4)ncc3Cl)ccc2n(C(C)C)c1=O (centres unmarked) [Compound 376, 2-{[6-({5-chloro-2-[4-({2-[2-(2,6-dioxopiperidin-3-yl)-4-fluoro-1-oxo-2,3-dihydro-1H-isoindol-5-yl]-5,5-difluoro-2,7-diazaspiro[3.5]nonan-7-yl}methyl)piperidin-1-yl]pyrimidin-4-yl}amino)-5-fluoro-2-oxo-1-(propan-2-yl)-1,2-dihydroquinolin-3-yl]oxy}-N-methylacetamide] | – | – | ≥ 70% | < 10 nM |
| CNC(=O)COc1cc2cc(Nc3nc(N4CCC(O[C@H]5C[C@H](N6CCC(O)(c7ccc8c(c7)C(=O)N(C7CCC(=O)NC7=O)C8=O)CC6)C5)CC4)ncc3Cl)ccc2n(C(C)C)c1=O (some centres unmarked) [Compound 275, 2-({6-[(5-chloro-2-{4-[(1r,3r)-3-{4-[2-(2,6-dioxopiperidin-3-yl)-1,3-dioxoisoindol-5-yl]-4-hydroxypiperidin-1-yl}cyclobutoxy]piperidin-1-yl}pyrimidin-4-yl)amino]-1-isopropyl-2-oxoquinolin-3-yl}oxy)-N-methylacetamide] | – | – | ≥ 70% | < 10 nM |
| CNC(=O)COc1cc2cc(Nc3nc(N4CCC5(CCN(CC6CCN(c7ccc8c(c7)CN(C7CCC(=O)NC7=O)C8=O)CC6)C5)C4)ncc3Cl)ccc2n(C(C)C)c1=O (centres unmarked) [Compound 3, 2-{[6-({5-chloro-2-[7-({1-[2-(2,6-dioxopiperidin-3-yl)-1-oxo-2,3-dihydro-1H-isoindol-5-yl]piperidin-4-yl}methyl)-2,7-diazaspiro[4.4]nonan-2-yl]pyrimidin-4-yl}amino)-2-oxo-1-(propan-2-yl)-1,2-dihydroquinolin-3-yl]oxy}-N-methylacetamide] | < 10 nM | 50 to 70% | – | – |

Further lines, with some results ahead:

| DC50 [1] | Dmax [1] | Compound | Dmax (T47D) | DC50 |
| --- | --- | --- | --- | --- |
| < 10 nM | 50 to 70% | CNC(=O)COc1cc2cc(Nc3nc(N4CCN(CC5(F)CCN(c6cccc7c6CN(C6CCC(=O)NC6=O)C7=O)CC5)CC4)ncc3Cl)ccc2n(C(C)C)c1=O (centres unmarked) [Compound 114, 2-{[6-({5-chloro-2-[4-({1-[2-(2,6-dioxopiperidin-3-yl)-1-oxo-2,3-dihydro-1H-isoindol-4-yl]-4-fluoropiperidin-4-yl}methyl)piperazin-1-yl]pyrimidin-4-yl}amino)-2-oxo-1-(propan-2-yl)-1,2-dihydroquinolin-3-yl]oxy}-N-methylacetamide] | – | – |
| < 10 nM | ≥ 70% | CNC(=O)COc1cc2cc(Nc3nc(N4CCC(F)(CN5CCC6(CC5)CCN(c5cccc7c5CN(C5CCC(=O)NC5=O)C7=O)CC6)CC4)ncc3Cl)ccc2n(C(C)C)c1=O (centres unmarked) [Compound 82, 2-{[6-({5-chloro-2-[4-({9-[2-(2,6-dioxopiperidin-3-yl)-1-oxo-2,3-dihydro-1H-isoindol-4-yl]-3,9-diazaspiro[5.5]undecan-3-yl}methyl)-4-fluoropiperidin-1-yl]pyrimidin-4-yl}amino)-2-oxo-1-(propan-2-yl)-1,2-dihydroquinolin-3-yl]oxy}-N-methylacetamide] | – | – |
| < 10 nM | 50 to 70% | CNC(=O)COc1cc2cc(Nc3nc(N4CCC(CN5CC6(CCN(c7cc(F)c8c(c7)CN(C7CCC(=O)NC7=O)C8=O)CC6)C5)CC4)ncc3Cl)ccc2n(C(C)C)c1=O (centres unmarked) [Compound 86, 2-{[6-({5-chloro-2-[4-({7-[2-(2,6-dioxopiperidin-3-yl)-7-fluoro-1-oxo-2,3-dihydro-1H-isoindol-5-yl]-2,7-diazaspiro[3.5]nonan-2-yl}methyl)piperidin-1-yl]pyrimidin-4-yl}amino)-2-oxo-1-(propan-2-yl)-1,2-dihydroquinolin-3-yl]oxy}-N-methylacetamide] | – | – |
| < 10 nM | 50 to 70% | CNC(=O)COc1cc2cc(Nc3nc(N4CCC(OC5CCC6(CC5)CN(c5ccc7c(c5)C(=O)N(C5CCC(=O)NC5=O)C7)C6)CC4)ncc3Cl)ccc2n(C(C)C)c1=O (centres unmarked) [Compound 69, 2-{[6-({5-chloro-2-[4-({2-[2-(2,6-dioxopiperidin-3-yl)-3-oxo-2,3-dihydro-1H-isoindol-5-yl]-2-azaspiro[3.5]nonan-7-yl}oxy)piperidin-1-yl]pyrimidin-4-yl}amino)-2-oxo-1-(propan-2-yl)-1,2-dihydroquinolin-3-yl]oxy}-N-methylacetamide] | – | – |
